Laboratory results from patent US20220289794A1, “SYNTHETIC ANTIMICROBIAL PEPTIDES” (priority 2019, published 2022).
Converted amounts (≈) assume the structure as drawn. Where two headings read alike, the source gives them in different places. Non-standard residues stand in square brackets, D forms with d. Residues, ends and D or L forms follow the SMILES beside them. dDip = N[C@@H](C(=O)O)C(c1ccccc1)c1ccccc1; Dip = N[C@H](C(=O)O)C(c1ccccc1)c1ccccc1; 2Nal = N[C@@H](Cc1ccc2ccccc2c1)C(=O)O; d2Nal = N[C@H](Cc1ccc2ccccc2c1)C(=O)O

What was measured:
[1] = system: Methicillin-resistant Staphylococcus aureus MRSA (ATCC BAA-1556); settings: ATCC BAA-1556
S. aureus ATCC 29213 = settings: ATCC 29213
[2] = system: Pseudomonas aeruginosa (ATCC 27883)
[3] = system: Escherichia coli (ATCC 25922); settings: ATCC 25922
in vitro = settings: human, fresh human red blood cells (washed), pH 7.4

Row | MIC MRSA ATCC BAA-1556 [1] [µg/mL] | MIC S. aureus ATCC 29213 (S. aureus ATCC 29213) [µg/mL] | MIC P. aeruginosa ATCC 27883 ([2]; ATCC 27883) [µg/mL] | MIC E. coli ATCC 25922 [3] [µg/mL] | HC50 at 0.5 h (in vitro) [µg/mL] | SMILES | MIC P. aeruginosa ATCC 27883 ([2]; P. aeruginosa ATCC 27883) [µg/mL]
1 | 6.2 (≈ 5.08 µM) | 6.2 (≈ 5.08 µM) | 128 (≈ 105 µM) | 128 (≈ 105 µM) | 580 | NCCCC[C@H]1NC(=O)[C@@H](CCCCN)NC(=O)[C@@H](CCCCN)NC(=O)[C@@H](Cc2ccc3ccccc3c2)NC(=O)[C@@H](Cc2ccc3ccccc3c2)NC(=O)[C@@H](Cc2c[nH]c3ccccc23)NC(=O)[C@@H](CCCCN)NC(=O)[C@@H](CCCCN)NC1=O [IFX-133, c[lys-lys-lys-lys-lys-trp-naI-naI]] (cyclo([d2Nal][d2Nal][dK][dK][dK][dK][dK][dW])) | –
2 | 12.5 (≈ 11.4 µM) | 12.5 (≈ 11.4 µM) | 128 (≈ 117 µM) | 64 (≈ 58.5 µM) | 610 | NCCCC[C@@H]1NC(=O)[C@H](CCCCN)NC(=O)[C@H](CCCCN)NC(=O)[C@H](Cc2ccc3ccccc3c2)NC(=O)[C@H](Cc2ccc3ccccc3c2)NC(=O)[C@H](Cc2c[nH]c3ccccc23)NC(=O)[C@H](CCCCN)NC1=O [IFX-126, c[Lys-Lys-Lys-Lys-Trp-NaI-NaI]] (cyclo([2Nal][2Nal]KKKKW)) | –
3 | 3.1 (≈ 2.84 µM) | 3.1 (≈ 2.84 µM) | 64 (≈ 58.5 µM) | 64 (≈ 58.5 µM) | 420 | NCCCC[C@@H]1NC(=O)[C@@H](CCCCN)NC(=O)[C@H](CCCCN)NC(=O)[C@@H](Cc2ccc3ccccc3c2)NC(=O)[C@@H](Cc2ccc3ccccc3c2)NC(=O)[C@H](Cc2c[nH]c3ccccc23)NC(=O)[C@@H](CCCCN)NC1=O [IFX-129, c[Lys-lys-Lys-lys-Trp-naI-naI]] (cyclo(K[dK]K[dK]W[d2Nal][d2Nal])) | –
4 | 3.1 (≈ 2.57 µM) | 3.1 (≈ 2.57 µM) | 25 (≈ 20.7 µM) | 12.5 (≈ 10.4 µM) | 380 | N=C(N)NCCC[C@@H]1NC(=O)[C@H](CCCNC(=N)N)NC(=O)[C@H](CCCNC(=N)N)NC(=O)[C@@H](Cc2ccc3ccccc3c2)NC(=O)[C@@H](Cc2ccc3ccccc3c2)NC(=O)[C@@H](Cc2c[nH]c3ccccc23)NC(=O)[C@H](CCCNC(=N)N)NC1=O [IFX-114, c[Arg-Arg-Arg-Arg-trp-naI-naI]] (cyclo(RRRR[dW][d2Nal][d2Nal])) | –
5 | 12.5 (≈ 11.4 µM) | 6.2 (≈ 5.67 µM) | 128 (≈ 117 µM) | 128 (≈ 117 µM) | 880 | NCCCC[C@H]1NC(=O)[C@@H](CCCCN)NC(=O)[C@@H](CCCCN)NC(=O)[C@@H](Cc2ccc3ccccc3c2)NC(=O)[C@@H](Cc2ccc3ccccc3c2)NC(=O)[C@@H](Cc2c[nH]c3ccccc23)NC(=O)[C@@H](CCCCN)NC1=O [IFX-130, c[lys-lys-lys-lys-trp-naI-naI]] (cyclo([d2Nal][d2Nal][dK][dK][dK][dK][dW])) | –
6 | 3.1 (≈ 2.28 µM) | 3.1 (≈ 2.28 µM) | 32 (≈ 23.5 µM) | 16 (≈ 11.8 µM) | 485 | N=C(N)NCCC[C@@H]1NC(=O)[C@H](CCCNC(=N)N)NC(=O)[C@@H](Cc2ccc3ccccc3c2)NC(=O)[C@@H](Cc2ccc3ccccc3c2)NC(=O)[C@H](Cc2c[nH]c3ccccc23)NC(=O)[C@@H](CCCNC(=N)N)NC(=O)[C@@H](CCCNC(=N)N)NC(=O)[C@H](CCCNC(=N)N)NC1=O [IFX-125, c[Arg-Arg-Arg-arg-arg-Trp-naI-naI]] (cyclo(RRR[dR][dR]W[d2Nal][d2Nal])) | –
7 | 12.5 (≈ 10.2 µM) | 12.5 (≈ 10.2 µM) | 128 (≈ 105 µM) | 128 (≈ 105 µM) | 890 | NCCCC[C@H]1NC(=O)[C@H](Cc2ccc3ccccc3c2)NC(=O)[C@H](Cc2ccc3ccccc3c2)NC(=O)[C@H](Cc2c[nH]c3ccccc23)NC(=O)[C@@H](CCCCN)NC(=O)[C@@H](CCCCN)NC(=O)[C@@H](CCCCN)NC(=O)[C@@H](CCCCN)NC1=O [IFX-134, c[lys-lys-lys-lys-lys-Trp-NaI-NaI]] (cyclo([2Nal][2Nal][dK][dK][dK][dK][dK]W)) | –
8 | 1.5 (≈ 1.24 µM) | 1.5 (≈ 1.24 µM) | 6.2 (≈ 5.14 µM) | 12.5 (≈ 10.4 µM) | 175 | N=C(N)NCCC[C@@H]1NC(=O)[C@H](CCCNC(=N)N)NC(=O)[C@@H](CCCNC(=N)N)NC(=O)[C@H](CCCNC(=N)N)NC(=O)[C@H](Cc2ccc3ccccc3c2)NC(=O)[C@H](Cc2ccc3ccccc3c2)NC(=O)[C@H](Cc2c[nH]c3ccccc23)NC1=O [IFX-107, c[Arg-arg-Arg-Arg-Trp-NaI-NaI]] (cyclo([2Nal][2Nal]R[dR]RRW)) | –

More lines, now with the values behind:

Row | SMILES | MIC MRSA ATCC BAA-1556 [1] [µg/mL] | MIC S. aureus ATCC 29213 (S. aureus ATCC 29213) [µg/mL] | MIC P. aeruginosa ATCC 27883 ([2]; ATCC 27883) [µg/mL] | MIC E. coli ATCC 25922 [3] [µg/mL] | HC50 at 0.5 h (in vitro) [µg/mL] | MIC P. aeruginosa ATCC 27883 ([2]; P. aeruginosa ATCC 27883) [µg/mL]
9 | N=C(N)NCCC[C@@H](N)C(=O)N[C@H](CCCNC(=N)N)C(=O)N[C@H](CCCNC(=N)N)C(=O)N[C@H](CCCNC(=N)N)C(=O)N[C@@H](Cc1c[nH]c2ccccc12)C(=O)N[C@@H](Cc1ccc2ccccc2c1)C(=O)N[C@@H](Cc1ccc2ccccc2c1)C(=O)O [IFX-113-1] (H-[dR][dR][dR][dR]W[2Nal][2Nal]-OH) | 6.2 (≈ 5.07 µM) | 6.2 (≈ 5.07 µM) | 12.5 (≈ 10.2 µM) | 12.5 (≈ 10.2 µM) | 300 | –
10 | N=C(N)NCCC[C@H]1NC(=O)[C@H](Cc2ccc3ccccc3c2)NC(=O)[C@H](Cc2ccc3ccccc3c2)NC(=O)[C@H](Cc2c[nH]c3ccccc23)NC(=O)[C@@H](CCCNC(=N)N)NC(=O)[C@@H](CCCNC(=N)N)NC(=O)[C@@H](CCCNC(=N)N)NC1=O [IFX-113, c[arg-arg-arg-arg-Trp-NaI-NaI]] (cyclo([dR][dR][dR][dR]W[2Nal][2Nal])) | 1.5 (≈ 1.24 µM) | 3.1 (≈ 2.57 µM) | – | 12.5 (≈ 10.4 µM) | 365 | 12.5 (≈ 10.4 µM)
11 | N=C(N)NCCC[C@@H](N)C(=O)N[C@@H](CCCNC(=N)N)C(=O)N[C@H](CCCNC(=N)N)C(=O)N[C@@H](CCCNC(=N)N)C(=O)N[C@@H](C(=O)N[C@@H](C(=O)N[C@@H](C(=O)O)C(c1ccccc1)c1ccccc1)C(c1ccccc1)c1ccccc1)C(c1ccccc1)c1ccccc1 [IFX-068-1] (H-[dR]R[dR]R[dDip][dDip][dDip]-OH) | 6.2 (≈ 4.72 µM) | 3.1 (≈ 2.36 µM) | 25 (≈ 19 µM) | 12.5 (≈ 9.52 µM) | 355 | –
12 | N=C(N)NCCC[C@@H](N)C(=O)N[C@H](CCCNC(=N)N)C(=O)N[C@H](CCCNC(=N)N)C(=O)N[C@H](CCCNC(=N)N)C(=O)N[C@@H](Cc1c[nH]c2ccccc12)C(=O)N[C@H](Cc1ccc2ccccc2c1)C(=O)N[C@H](Cc1ccc2ccccc2c1)C(=O)O [IFX-109-1] (H-[dR][dR][dR][dR]W[d2Nal][d2Nal]-OH) | 3.1 (≈ 2.53 µM) | 3.1 (≈ 2.53 µM) | 12.5 (≈ 10.2 µM) | 12.5 (≈ 10.2 µM) | 375 | –
13 | N=C(N)NCCC[C@@H]1NC(=O)[C@H](CCCNC(=N)N)NC(=O)[C@H](Cc2ccc3ccccc3c2)NC(=O)[C@H](Cc2ccc3ccccc3c2)NC(=O)[C@@H](Cc2c[nH]c3ccccc23)NC(=O)[C@H](CCCNC(=N)N)NC(=O)[C@H](CCCNC(=N)N)NC1=O [IFX-104, c[Arg-Arg-Arg-Arg-trp-NaI-NaI]] (cyclo([2Nal][2Nal]RRRR[dW])) | 3.1 (≈ 2.57 µM) | 3.1 (≈ 2.57 µM) | – | 12.5 (≈ 10.4 µM) | 155 | 12.5 (≈ 10.4 µM)
14 | N=C(N)NCCC[C@H]1NC(=O)[C@@H](CCCNC(=N)N)NC(=O)[C@@H](CCCNC(=N)N)NC(=O)[C@@H](CCCNC(=N)N)NC(=O)[C@@H](Cc2ccc3ccccc3c2)NC(=O)[C@@H](Cc2ccc3ccccc3c2)NC(=O)[C@H](Cc2c[nH]c3ccccc23)NC1=O [IFX-109, c[arg-arg-arg-arg-Trp-naI-naI]] (cyclo(W[d2Nal][d2Nal][dR][dR][dR][dR])) | 1.5 (≈ 1.24 µM) | 3.1 (≈ 2.57 µM) | – | 12.5 (≈ 10.4 µM) | 190 | 12.5 (≈ 10.4 µM)
15 | N=C(N)NCCC[C@@H](N)C(=O)N[C@H](CCCNC(=N)N)C(=O)N[C@H](CCCNC(=N)N)C(=O)N[C@H](CCCNC(=N)N)C(=O)N[C@H](C(=O)N[C@H](C(=O)N[C@H](C(=O)O)C(c1ccccc1)c1ccccc1)C(c1ccccc1)c1ccccc1)C(c1ccccc1)c1ccccc1 [IFX-073-1] (H-[dR][dR][dR][dR][Dip][Dip][Dip]-OH) | 6.2 (≈ 4.72 µM) | 3.1 (≈ 2.36 µM) | 12.5 (≈ 9.52 µM) | 6.2 (≈ 4.72 µM) | 410 | –
16 | N=C(N)NCCC[C@H](NC(=O)[C@@H](CCCNC(=N)N)NC(=O)[C@@H](N)CCCNC(=N)N)C(=O)N[C@H](CCCNC(=N)N)C(=O)N[C@@H](Cc1c[nH]c2ccccc12)C(=O)N[C@H](Cc1ccc2ccccc2c1)C(=O)N[C@H](Cc1ccc2ccccc2c1)C(=O)O [IFX-111-1] (H-R[dR]R[dR]W[d2Nal][d2Nal]-OH) | 3.1 (≈ 2.53 µM) | 3.1 (≈ 2.53 µM) | 25 (≈ 20.4 µM) | 25 (≈ 20.4 µM) | 310 | –
17 | N=C(N)NCCC[C@H](NC(=O)[C@@H](CCCNC(=N)N)NC(=O)[C@@H](N)CCCNC(=N)N)C(=O)N[C@H](CCCNC(=N)N)C(=O)N[C@@H](C(=O)N[C@@H](C(=O)N[C@@H](C(=O)O)C(c1ccccc1)c1ccccc1)C(c1ccccc1)c1ccccc1)C(c1ccccc1)c1ccccc1 [IFX-070-1] (H-R[dR]R[dR][dDip][dDip][dDip]-OH) | 3.1 (≈ 2.36 µM) | 3.1 (≈ 2.36 µM) | 12.5 (≈ 9.52 µM) | 6.2 (≈ 4.72 µM) | 380 | –
